Experimental data reported in ChEMBL document CHEMBL4602676, “Discovery and Development of 3-(6-Chloropyridine-3-yloxymethyl)-2-azabicyclo[3.1.0]hexane Hydrochloride (SUVN-911): A Novel, Potent, Selective, and Orally Active Neuronal Nicotinic Acetylcholine α4β2 Receptor Antagonist for the Treatment of Depression” (J Med Chem, 2020).

Legend:
[1] = AUC in Wistar rat at 10 ml/kg, po or 2 ml/kg, iv measured upto 24 hrs by LC-MS/MS analysis; assay type: ADME, organism-based; settings: in vivo
Caco-2 = experiment: Ratio of apparent permeability across basolateral to apical over apical to basolateral side in human Caco2 cells; assay type: ADME, cell-based
[2] = Metabolic stability in rat liver microsomes assessed as compound metabolism incubated for 30 mins in presence of NADPH by LC-MS/MS analysis; assay type: ADME, Microsome; settings: read-out: Drug metabolism
[3] = target: T1, Solute carrier family 22 member 6 (Homo sapiens, UniProt Q4U2R8); experiment: Inhibition of OAT1 (unknown origin)
T1 sequence (Q4U2R8 whole entry): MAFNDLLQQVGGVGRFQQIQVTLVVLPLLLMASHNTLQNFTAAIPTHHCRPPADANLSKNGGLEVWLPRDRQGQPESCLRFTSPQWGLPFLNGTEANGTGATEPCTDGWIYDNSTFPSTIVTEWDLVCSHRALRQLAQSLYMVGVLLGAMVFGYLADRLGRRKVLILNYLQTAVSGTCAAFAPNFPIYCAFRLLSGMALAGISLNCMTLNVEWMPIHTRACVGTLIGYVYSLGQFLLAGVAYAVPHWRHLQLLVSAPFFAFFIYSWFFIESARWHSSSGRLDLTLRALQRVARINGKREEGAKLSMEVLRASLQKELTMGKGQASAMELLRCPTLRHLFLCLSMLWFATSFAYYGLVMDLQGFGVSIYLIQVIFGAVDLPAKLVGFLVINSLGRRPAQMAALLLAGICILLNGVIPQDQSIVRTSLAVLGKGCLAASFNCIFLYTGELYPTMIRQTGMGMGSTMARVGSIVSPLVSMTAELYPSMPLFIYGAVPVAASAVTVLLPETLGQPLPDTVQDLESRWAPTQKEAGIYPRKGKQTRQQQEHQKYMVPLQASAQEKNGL

Rattus norvegicus = experiment: Antidepressant activity in Wistar rat assessed as reduction in immobility at 10 mg/kg, po administrated for 3 days and measured for 5 mins by forced swim test relative to control; assay type: functional; design: scale not given: the % may be the effect or the level left
[4] = Protein binding in dog plasma assessed as unbound fraction at […] incubated for 6 hrs by LC-MS/MS analysis; assay type: ADME, cell-free, Canis lupus familiaris
[5] = Cmax in Wistar rat at 10 ml/kg, po or 2 ml/kg, iv measured upto 24 hrs by LC-MS/MS analysis; assay type: ADME, organism-based; settings: in vivo
[6] = target: T2, Organic anion transporter 3 (Homo sapiens, UniProt Q8TCC7); experiment: Inhibition of OAT3 (unknown origin)
T2 sequence (Q8TCC7 whole entry): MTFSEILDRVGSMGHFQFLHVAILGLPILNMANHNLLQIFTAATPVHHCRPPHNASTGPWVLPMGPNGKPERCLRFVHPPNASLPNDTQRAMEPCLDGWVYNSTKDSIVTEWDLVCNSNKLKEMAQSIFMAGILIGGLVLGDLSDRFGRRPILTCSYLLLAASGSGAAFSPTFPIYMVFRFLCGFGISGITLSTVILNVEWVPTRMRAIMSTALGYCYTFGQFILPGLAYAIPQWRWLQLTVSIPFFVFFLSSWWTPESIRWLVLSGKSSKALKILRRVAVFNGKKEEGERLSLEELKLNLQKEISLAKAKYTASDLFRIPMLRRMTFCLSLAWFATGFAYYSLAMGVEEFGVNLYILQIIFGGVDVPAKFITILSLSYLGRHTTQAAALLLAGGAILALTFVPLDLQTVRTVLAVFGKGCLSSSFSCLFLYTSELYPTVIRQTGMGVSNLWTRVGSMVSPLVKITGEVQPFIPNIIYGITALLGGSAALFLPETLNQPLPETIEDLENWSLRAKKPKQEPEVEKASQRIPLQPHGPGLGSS

[7] = target: Neuronal acetylcholine receptor; alpha4/beta2 (Rattus norvegicus) (UniProt P09483+P12390); experiment: In vivo receptor occupancy at alpha4beta2 nAChR in Wistar rat pretreated for 15 mins followed by non radiolabelled ZW-104 tracer treatment and measured after 45 mins by LC-MS/MS analysis; assay type: functional, organism-based
[8] = Genotoxicity in Salmonella typhimurium TA100 in absence of metabolic activation; assay type: toxicity; settings: salmonella enterica subsp. enterica serovar typhimurium
[9] = Volume of distribution in Beagle dog at 1 mg/kg, iv by LC-MS/MS analysis; assay type: ADME, organism-based, Canis lupus familiaris; settings: in vivo
[10] = Genotoxicity in Salmonella typhimurium TA98 in absence of metabolic activation; assay type: toxicity; settings: salmonella enterica subsp. enterica serovar typhimurium
[11] = Apparent permeability in human Caco2 cells; assay type: ADME, cell-based; settings: caco-2

Cl.Clc1ccc(OC[C@@H]2C[C@H]3C[C@H]3N2)cn1
AUC at 24 h [1]: 3510 ng·h/mL | Ratio (Caco-2): 0.7 | metabolised at 0.5 h [2]: 32.2% | inhibition (INH) [3]: Not Active | Activity (Rattus norvegicus): 66.4% | fraction unbound at 6 h [4]: 0.31 | Cmax [5]: 1910 ng/mL | inhibition (INH) [6]: Not Active | Activity [7]: Dose-dependent effect | ED50 [7]: 1610 nM | Activity [8]: Non-Toxic | Vd [9]: 1.3 L/kg | Activity [10]: Non-Toxic | Papp [11]: 68.8 ×10⁻⁶ cm/s
